Data on 21 compounds can be found in patent US11648254B2 (Kumquat Biosciences Inc., priority 2021, dated 2023).

This test addresses SOS1 (Homo sapiens (Human), UniProt Q07889). In words: Ras-SOS interaction assay (HTRF). The test is classed as biochemical. The text has this: The ability of any compound of the present disclosure to reduce a Ras protein signaling output by, e.g., interfering or disrupting interaction (or binding) between SOS1 and a Ras protein can be assessed in vitro. For example, the equilibrium interaction of human SOS1 (hSOS1) with human wildtype Kras or K-Ras mutant (e.g., hK-Ras G12C mutant, or hK-RasG12C) can be assessed as a proxy or an indication for a subject compound's ability to inhibit SOS. Detection of such interaction is achieved by measuring homogenous time-resolved fluorescence resonance energy transfer (HTRF) from (i) a fluorescence resonance energy transfer (FRET) donor (e.g., antiGST-Europium) that is bound to GST-tagged K-RasG12C to (ii) a FRET acceptor (e.g., anti-6His-XL665) bound to a His-tagged hSOS1.
The assay buffer can contain 5 mM HEPES pH 7.4, 150 mM NaCl, 10 mM EDTA, 1 mM DTT, 0.05% BSA, 0.0025% (v/v) Igepal and 100 mM KF. A Ras working solution is prepared in assay buffer containing typically 10 nM of the protein construct (e.g., GST-tagged hK-RasG12C) and 2 nM of the FRET donor (e.g., antiGST-Eu(K) from Cisbio, France). A SOS1 working solution is prepared in assay buffer containing typically 10 nM of the protein construct (e.g., His-hSOS1) and 10 nM of the FRET acceptor (e.g., anti-6His-XL665 from Cisbio, France). An inhibitor control solution is prepared in assay buffer containing 10 nM of the FRET acceptor without the SOS1 protein.
A fixed reaction mixture with or without test compound is transferred into a 384-well plate. Ras working solution is added to all wells of the test plate. SOS1 working solution is added to all wells except for those that are subsequently filled the inhibitor control solution. After approximately 60 min incubation, the fluorescence is measured with a M1000Pro plate reader (Tecan) using HTRF detection (excitation 337 nm, emission 1: 620 nm, emission 2: 665 nm). Compounds are tested in duplicates at different concentrations (for example, 10 μM, 2.5 μM, 0.63 μM, 0.16 μM, 0.04 μM, 0.01 μM test compound). The ratiometric data (i.e., emission 2 divided by emission 1) is used to calculate IC50 values against SOS1 using GraphPad Prism (GraphPad software).

The mark [1] stands for this setting: K-RasG13D utilized, read-out: IC50 inhibition of SOS.
Setting [2] is: K-RasG13D, read-out: IC50 value against SOS1.

Like-named read-outs stand apart in the source and are kept apart here.

Sequence of SOS1 (Q07889 564-1049): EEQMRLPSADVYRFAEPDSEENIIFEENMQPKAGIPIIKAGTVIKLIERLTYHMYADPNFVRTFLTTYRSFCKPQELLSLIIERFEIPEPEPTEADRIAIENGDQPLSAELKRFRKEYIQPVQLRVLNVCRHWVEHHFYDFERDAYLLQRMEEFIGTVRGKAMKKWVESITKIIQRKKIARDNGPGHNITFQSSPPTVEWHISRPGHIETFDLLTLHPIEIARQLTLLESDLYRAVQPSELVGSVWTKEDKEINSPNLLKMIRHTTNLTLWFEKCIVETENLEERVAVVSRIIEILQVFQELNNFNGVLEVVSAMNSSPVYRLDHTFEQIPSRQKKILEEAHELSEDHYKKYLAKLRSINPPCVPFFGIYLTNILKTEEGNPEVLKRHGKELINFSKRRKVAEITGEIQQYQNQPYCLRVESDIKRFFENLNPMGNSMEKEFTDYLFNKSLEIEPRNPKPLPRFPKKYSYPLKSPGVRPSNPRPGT

With `COc1nc2nc(C)nc(N[C@H](C)c3cccc(C(F)F)c3F)c2cc1S(=O)(=O)N1CCN(C)CC1` [Compound 106, (R)—N-(1-(3-(difluoromethyl)-2-fluorophenyl)ethyl)-7-methoxy-2-methyl-6-((4-methylpiperazin-1-yl)sulfonyl)pyrido[2,3-d]pyrimidin-4-amine], under setting [1], the IC50 is less than 100 nM.
Consider `Cc1nc(N[C@H](C)c2cccc(C(F)(F)F)c2F)c2cc(N3CCN(C(C)C)CC3)nnc2n1` [Compound 107, (R)—N-(1-(2-fluoro-3-(trifluoromethyl)phenyl)ethyl)-3-(4-isopropylpiperazin-1-yl)-7-methylpyrimido[4,5-c]pyridazin-5-amine], for which the IC50 under setting [1] is less than 100 nM.
Same read-out and setting: under `Cc1nc(N[C@H](C)c2cccc(C(F)F)c2F)c2cc(N3CCN(C(C)C)CC3)nnc2n1` [Compound 108, (R)—N-(1-(3-(difluoromethyl)-2-fluorophenyl)ethyl)-3-(4-isopropylpiperazin-1-yl)-7-methylpyrimido[4,5-c]pyridazin-5-amine] stands less than 100 nM; under `COc1nc2nc(C)nc(N[C@H](C)c3cccc(C)c3F)c2cc1[C@H]1C[C@@H](N)C1` [Compound 111, 6-((1s,3S)-3-aminocyclobutyl)-N-((R)-1-(2-fluoro-3-methylphenyl)ethyl)-7-methoxy-2-methylpyrido[2,3-d]pyrimidin-4-amine], 100 to 1000 nM.
For `COc1nc2nc(C)nc(N[C@H](C)c3cccc(C(F)F)c3F)c2cc1C1CCNCC1` [Compound 121, (R)—N-(1-(3-(difluoromethyl)-2-fluorophenyl)ethyl)-7-methoxy-2-methyl-6-(piperidin-4-yl)pyrido[2,3-d]pyrimidin-4-amine], the half-maximal inhibitory concentration (IC50) was less than 100 nM under setting [1] and less than 50 nM under setting [2].
For `COc1nc2nc(C)nc(N[C@H](C)c3cccc(C(F)F)c3F)c2cc1C1CCN(C(=O)NC2CNC2)CC1` [Compound 122, (R)-N-(azetidin-3-yl)-4-(4-((1-(3-(difluoromethyl)-2-fluorophenyl)ethyl)amino)-7-methoxy-2-methylpyrido[2,3-d]pyrimidin-6-yl)piperidine-1-carboxamide], the half-maximal inhibitory concentration (IC50) reads like this: under setting [1], less than 100 nM; under setting [2], less than 50 nM.
For `COc1nc2nc(C)nc(N[C@H](C)c3cccc(C(F)F)c3F)c2cc1C1CCN(C(=O)NC2CN(C)C2)CC1` [Compound 124, (R)-4-(4-((1-(3-(difluoromethyl)-2-fluorophenyl)ethyl)amino)-7-methoxy-2-methylpyrido[2,3-d]pyrimidin-6-yl)-N-(1-methylazetidin-3-yl)piperidine-1-carboxamide], the IC50 runs as follows: under setting [1], less than 100 nM; under setting [2], less than 50 nM.
On to `COc1nc2nc(C)nc(N[C@H](C)c3cccc(C(F)F)c3F)c2cc1C1(C#N)CCN(Cc2ccccc2)CC1` [Compound 140, (R)-1-benzyl-4-(4-((1-(3-(difluoromethyl)-2-fluorophenyl)ethyl)amino)-7-methoxy-2-methylpyrido[2,3-d]pyrimidin-6-yl)piperidine-4-carbonitrile], for which the IC50 under setting [1] lay in the range of 100 to 1000 nM.
As to `Cc1nc(N[C@H](C)c2cccc(C(F)F)c2F)c2cc(S(=O)(=O)C3CCN(C)CC3)c(C)nc2n1` [Compound 141, (R)-N-(1-(3-(difluoromethyl)-2-fluorophenyl)ethyl)-2,7-dimethyl-6-((1-methylpiperidin-4-yl)sulfonyl)pyrido[2,3-d]pyrimidin-4-amine], under setting [1], the 50% inhibitory concentration (IC50) is less than 100 nM.
In the case of `COc1nc2nc(C)nc(N[C@H](C)c3cc(F)cc(C(F)F)c3F)c2cc1C1CCS(=O)(=O)CC1` [Compound 144, (R)-4-(4-((1-(3-(difluoromethyl)-2,5-difluorophenyl)ethyl)amino)-7-methoxy-2-methylpyrido[2,3-d]pyrimidin-6-yl)tetrahydro-2H-thiopyran 1,1-dioxide], the half-inhibitory concentration (IC50) under setting [1] was 100 to 1000 nM.
Turning to `COc1nc2nc(N3CCC3)nc(N[C@H](C)c3cccc(C(F)F)c3F)c2cc1N1CCN(C(C)C)CC1` [Compound 168, (R)-2-(azetidin-1-yl)-N-(1-(3-(difluoromethyl)-2-fluorophenyl)ethyl)-6-(4-isopropylpiperazin-1-yl)-7-methoxypyrido[2,3-d]pyrimidin-4-amine], under setting [1], the 50% inhibitory concentration (IC50) was 100 to 1000 nM.
Take `Cc1nc(N[C@H](C)c2cccc(C(F)F)c2F)c2cc(C3(C(F)F)CC3)c(OC3COC3)nc2n1` [Compound 186, (R)—N-(1-(3-(difluoromethyl)-2-fluorophenyl)ethyl)-6-(1-(difluoromethyl)cyclopropyl)-2-methyl-7-(oxetan-3-yloxy)pyrido[2,3-d]pyrimidin-4-amine]: the IC50 under setting [1] is less than 100 nM.
In the case of `Cc1nc(N[C@H](C)c2cccc(C(F)(F)F)c2C)c2cc(N3CCN(C(C)C)CC3)c(Cl)nc2n1` [Compound 201, (R)-7-chloro-6-(4-isopropylpiperazin-1-yl)-2-methyl-N-(1-(2-methyl-3-(trifluoromethyl)phenyl)ethyl)pyrido[2,3-d]pyrimidin-4-amine], the concentration for half-maximal inhibition (IC50) under setting [1] was less than 100 nM and the IC50 under setting [2] is less than 50 nM.
For the compound `COc1nc2nc(C)nc(N[C@H](C)c3cccc(C(F)(F)CCC4CN(C(=O)OC(C)(C)C)C4)c3F)c2cc1C1(C#N)CC1` [Compound 208, tert-butyl (R)-3-(3-(3-(1-((6-(1-cyanocyclopropyl)-7-methoxy-2-methylpyrido[2,3-d]pyrimidin-4-yl)amino)ethyl)-2-fluorophenyl)-3,3-difluoropropyl)azetidine-1-carboxylate], under setting [1], the 50% inhibitory concentration (IC50) was 100 to 1000 nM.
For `Cc1nc(N[C@H](C)c2cccc(C(F)F)c2F)c2cc(C3(C#N)CC3)c(NC3COC3)nc2n1` [Compound 225, (R)-1-(4-((1-(3-(difluoromethyl)-2-fluorophenyl)ethyl)amino)-2-methyl-7-(oxetan-3-ylamino)pyrido[2,3-d]pyrimidin-6-yl)cyclopropane-1-carbonitrile], the concentration for half-maximal inhibition (IC50) under setting [1] was 100 to 1000 nM.
As to `Cc1nc(N[C@H](C)c2cccc(C(F)F)c2F)c2cc(C3(C#N)CC3)c(NC3CCOCC3)nc2n1` [Compound 228, (R)-1-(4-((1-(3-(difluoromethyl)-2-fluorophenyl)ethyl)amino)-2-methyl-7-((tetrahydro-2H-pyran-4-yl)amino)pyrido[2,3-d]pyrimidin-6-yl)cyclopropane-1-carbonitrile], under setting [1], the 50% inhibitory concentration (IC50) was in the range of 100 to 1000 nM.
With `C[C@@H](Nc1ncnc2nc(O[C@H]3CCOC3)c(C3(C#N)CC3)cc12)c1cccc(C(F)F)c1F` [Compound 230, 1-(4-(((R)-1-(3-(difluoromethyl)-2-fluorophenyl)ethyl)amino)-7-(((S)-tetrahydrofuran-3-yl)oxy)pyrido[2,3-d]pyrimidin-6-yl)cyclopropane-1-carbonitrile], under setting [1], the IC50 fell in the range of 100 to 1000 nM.
For `COc1nc2nc(N3CC(N(C)C)C3)nc(N[C@H](C)c3cccc(C(F)F)c3F)c2cc1C1(C#N)CC1` [Compound 237, (R)-1-(4-((1-(3-(difluoromethyl)-2-fluorophenyl)ethyl)amino)-2-(3-(dimethylamino)azetidin-1-yl)-7-methoxypyrido[2,3-d]pyrimidin-6-yl)cyclopropane-1-carbonitrile], the 50% inhibitory concentration (IC50) under setting [1] lay in the range of 100 to 1000 nM.
Same read-out and setting: under `COc1nc2nc(C)nc(N[C@H](C)c3cccc(C(F)(F)C(C)(C)OC4CN(C(=O)OC(C)(C)C)C4)c3F)c2cc1N1CCN(C(C)C)CC1` [Compound 241, tert-butyl (R)-3-((1,1-difluoro-1-(2-fluoro-3-(1-((6-(4-isopropylpiperazin-1-yl)-7-methoxy-2-methylpyrido[2,3-d]pyrimidin-4-yl)amino)ethyl)phenyl)-2-methylpropan-2-yl)oxy)azetidine-1-carboxylate] stands less than 100 nM.
Take `Cc1nc(N[C@H](C)c2cccc(C(F)F)c2F)c2cc(C3CCN(C)CC3)c(OC3COC3)nc2n1` [Compound 246, (R)-N-(1-(3-(difluoromethyl)-2-fluorophenyl)ethyl)-2-methyl-6-(1-methylpiperidin-4-yl)-7-(oxetan-3-yloxy)pyrido[2,3-d]pyrimidin-4-amine]: the 50% inhibitory concentration (IC50) by setting is: under setting [1], less than 100 nM; under setting [2], less than 50 nM.
With `Cc1nc(N[C@H](C)c2cccc3c2OC(C)(C)C3(F)F)c2cc(N3CCN(C(C)C)CC3)c(OCC3COC3)nc2n1` [Compound 274, (R)—N-(1-(3,3-difluoro-2,2-dimethyl-2,3-dihydrobenzofuran-7-yl)ethyl)-6-(4-isopropylpiperazin-1-yl)-2-methyl-7-(oxetan-3-ylmethoxy)pyrido[2,3-d]pyrimidin-4-amine], under setting [1], the IC50 was 100 to 1000 nM.
